Measurements from BindingDB's records for PubMed 29133594 (University of North Carolina at Chapel Hill).

Assays:
[1] = molecular target: RAC-alpha serine/threonine-protein kinase (Homo sapiens, UniProt P31749); assay: Inhibition of AKT1 (unknown origin)
Aurora kinase A = molecular target: T1, Aurora kinase A (Homo sapiens, UniProt O14965); assay: Inhibition of AURKA (unknown origin)
T1 sequence (O14965 whole entry): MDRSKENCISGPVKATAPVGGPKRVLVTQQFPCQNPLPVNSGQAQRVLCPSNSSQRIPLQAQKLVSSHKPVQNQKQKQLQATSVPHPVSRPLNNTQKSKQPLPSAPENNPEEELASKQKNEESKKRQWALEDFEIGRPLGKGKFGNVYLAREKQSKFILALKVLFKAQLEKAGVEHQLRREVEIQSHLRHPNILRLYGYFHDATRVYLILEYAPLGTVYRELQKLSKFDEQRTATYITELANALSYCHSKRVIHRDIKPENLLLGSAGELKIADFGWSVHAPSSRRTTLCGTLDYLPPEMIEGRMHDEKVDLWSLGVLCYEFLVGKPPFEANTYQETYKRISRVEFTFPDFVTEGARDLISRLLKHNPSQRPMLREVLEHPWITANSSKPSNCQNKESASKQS

Aurora kinase B = Aurora kinase B (Homo sapiens, UniProt Q96GD4); assay: Inhibition of AURKB (unknown origin)
[2] = molecular target: RAF proto-oncogene serine/threonine-protein kinase (Homo sapiens, UniProt P04049); assay: Inhibition of CRAF (unknown origin)
[3] = molecular target: Mitogen-activated protein kinase 3 (Homo sapiens, UniProt P27361); assay: Inhibition of ERK1 (unknown origin)
[4] = molecular target: Serine/threonine-protein kinase PLK1 (Homo sapiens, UniProt P53350); assay: Inhibition of PLK1 (unknown origin)
[5] = molecular target: Serine/threonine-protein kinase PLK3 (Homo sapiens, UniProt Q9H4B4); assay: Inhibition of PLK3 (unknown origin)

Measured: IC50

Aurora kinase B, sequence (Q96GD4 whole entry): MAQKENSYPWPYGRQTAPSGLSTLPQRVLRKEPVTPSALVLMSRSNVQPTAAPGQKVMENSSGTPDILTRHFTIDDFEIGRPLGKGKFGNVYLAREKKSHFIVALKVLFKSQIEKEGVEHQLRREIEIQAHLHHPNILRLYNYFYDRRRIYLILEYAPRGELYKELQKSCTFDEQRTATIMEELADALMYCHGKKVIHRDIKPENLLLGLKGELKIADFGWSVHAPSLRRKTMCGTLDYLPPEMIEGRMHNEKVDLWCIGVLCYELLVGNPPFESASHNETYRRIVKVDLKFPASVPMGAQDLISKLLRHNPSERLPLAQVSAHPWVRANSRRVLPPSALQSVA
Serine/threonine-protein kinase PLK3, sequence (Q9H4B4 whole entry): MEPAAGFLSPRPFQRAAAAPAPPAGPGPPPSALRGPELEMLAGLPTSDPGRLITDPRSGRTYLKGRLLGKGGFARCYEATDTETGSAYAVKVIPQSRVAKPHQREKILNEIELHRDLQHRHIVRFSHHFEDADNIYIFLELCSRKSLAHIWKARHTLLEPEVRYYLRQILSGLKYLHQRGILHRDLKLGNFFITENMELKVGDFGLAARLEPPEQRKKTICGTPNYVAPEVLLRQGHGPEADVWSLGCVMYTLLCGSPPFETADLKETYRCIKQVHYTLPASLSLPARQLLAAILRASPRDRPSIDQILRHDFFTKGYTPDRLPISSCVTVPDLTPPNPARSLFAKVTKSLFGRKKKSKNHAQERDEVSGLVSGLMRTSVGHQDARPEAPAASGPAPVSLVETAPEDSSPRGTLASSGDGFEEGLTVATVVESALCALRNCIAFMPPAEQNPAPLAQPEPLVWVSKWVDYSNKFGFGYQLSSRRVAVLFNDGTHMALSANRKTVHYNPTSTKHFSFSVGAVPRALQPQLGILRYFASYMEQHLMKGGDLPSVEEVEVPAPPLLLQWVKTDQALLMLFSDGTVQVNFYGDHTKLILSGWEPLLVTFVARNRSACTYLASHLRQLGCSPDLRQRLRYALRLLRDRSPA
RAC-alpha serine/threonine-protein kinase, sequence (P31749 whole entry): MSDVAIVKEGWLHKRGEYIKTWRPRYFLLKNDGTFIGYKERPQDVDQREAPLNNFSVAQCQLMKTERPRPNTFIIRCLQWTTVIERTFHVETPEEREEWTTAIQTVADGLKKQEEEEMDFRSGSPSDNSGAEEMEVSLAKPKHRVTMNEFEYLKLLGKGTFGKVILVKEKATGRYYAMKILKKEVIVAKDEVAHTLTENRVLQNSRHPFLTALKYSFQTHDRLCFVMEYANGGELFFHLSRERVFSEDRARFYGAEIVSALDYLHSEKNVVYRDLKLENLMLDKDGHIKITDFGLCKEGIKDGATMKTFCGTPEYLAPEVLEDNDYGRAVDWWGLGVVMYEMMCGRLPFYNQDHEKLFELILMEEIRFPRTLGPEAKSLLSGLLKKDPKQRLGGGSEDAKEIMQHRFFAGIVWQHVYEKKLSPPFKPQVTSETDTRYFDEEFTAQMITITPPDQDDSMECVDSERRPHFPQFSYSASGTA
RAF proto-oncogene serine/threonine-protein kinase, sequence (P04049 whole entry): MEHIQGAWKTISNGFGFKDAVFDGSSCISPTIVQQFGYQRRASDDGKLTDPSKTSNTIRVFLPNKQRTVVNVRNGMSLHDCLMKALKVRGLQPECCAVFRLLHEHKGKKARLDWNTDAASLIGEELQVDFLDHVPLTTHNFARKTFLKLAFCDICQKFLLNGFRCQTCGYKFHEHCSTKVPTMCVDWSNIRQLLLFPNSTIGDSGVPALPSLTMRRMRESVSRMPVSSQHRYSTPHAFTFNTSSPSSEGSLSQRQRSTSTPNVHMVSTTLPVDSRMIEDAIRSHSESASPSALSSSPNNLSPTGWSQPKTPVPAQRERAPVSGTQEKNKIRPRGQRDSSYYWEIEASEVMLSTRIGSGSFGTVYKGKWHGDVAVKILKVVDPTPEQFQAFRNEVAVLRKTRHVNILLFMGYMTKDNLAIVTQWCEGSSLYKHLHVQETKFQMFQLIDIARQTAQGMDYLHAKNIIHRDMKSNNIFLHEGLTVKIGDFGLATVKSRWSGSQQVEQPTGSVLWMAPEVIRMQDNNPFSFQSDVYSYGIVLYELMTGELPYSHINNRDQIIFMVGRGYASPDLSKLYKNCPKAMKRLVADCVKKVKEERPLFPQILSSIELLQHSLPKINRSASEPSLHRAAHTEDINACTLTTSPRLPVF
Serine/threonine-protein kinase PLK1, sequence (P53350 whole entry): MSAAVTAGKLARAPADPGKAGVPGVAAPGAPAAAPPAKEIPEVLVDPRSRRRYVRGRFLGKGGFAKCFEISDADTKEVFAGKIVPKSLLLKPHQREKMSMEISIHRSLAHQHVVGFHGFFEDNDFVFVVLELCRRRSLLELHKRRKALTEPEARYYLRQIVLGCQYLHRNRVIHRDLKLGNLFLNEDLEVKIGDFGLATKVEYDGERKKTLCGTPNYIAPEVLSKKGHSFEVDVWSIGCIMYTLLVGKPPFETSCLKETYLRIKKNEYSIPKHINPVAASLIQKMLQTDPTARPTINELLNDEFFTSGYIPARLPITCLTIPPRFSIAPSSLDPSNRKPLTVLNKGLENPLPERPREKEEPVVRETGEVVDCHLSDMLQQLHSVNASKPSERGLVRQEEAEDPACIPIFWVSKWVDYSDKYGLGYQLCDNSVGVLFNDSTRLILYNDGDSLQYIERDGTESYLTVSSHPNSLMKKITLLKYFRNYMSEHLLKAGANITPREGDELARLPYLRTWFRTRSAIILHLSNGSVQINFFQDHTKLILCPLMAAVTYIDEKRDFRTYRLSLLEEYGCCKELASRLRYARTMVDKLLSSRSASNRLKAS
Mitogen-activated protein kinase 3, sequence (P27361 whole entry): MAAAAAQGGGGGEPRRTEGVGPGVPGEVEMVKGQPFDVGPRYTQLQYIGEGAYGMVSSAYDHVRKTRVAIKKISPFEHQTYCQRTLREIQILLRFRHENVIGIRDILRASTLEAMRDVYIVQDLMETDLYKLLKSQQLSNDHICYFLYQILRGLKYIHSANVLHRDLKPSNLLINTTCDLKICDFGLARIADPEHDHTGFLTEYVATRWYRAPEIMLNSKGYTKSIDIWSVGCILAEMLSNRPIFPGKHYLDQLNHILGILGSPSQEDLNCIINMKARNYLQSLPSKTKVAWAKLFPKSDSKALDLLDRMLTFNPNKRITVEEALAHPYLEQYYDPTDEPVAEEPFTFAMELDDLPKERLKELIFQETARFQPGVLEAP

CCN1CCN(Cc2ccc(Nc3ncc(F)c(-c4cc(F)c5nc(C)n(C(C)C)c5c4)n3)nc2)CC1 [Abemaciclib]
> 20 µM: all assays above
